Data set [1] relates to gastrointestinal motility in rats. The experiment in a line: Gastrointestinal motility in rats by charcoal transit, 0.25 mg/kg i.v. (Example 8). The settings on record: for reduction of the amount of charcoal remaining in the stomach relative to the control group: 0.25 mg/kg i.v. The format is in vivo, rat. Here is the method:
The objective of this study was to evaluate the pharmacological effects of a series of ghrelin mimetics on gastrointestinal motility in rats, as measured by charcoal transit, relative to a commonly used prokinetic agent, metoclopramide, and control, following a single intravenous infusion of the experimental agent. Each dosing formulation was prepared on the day of dosing. […] The reference article formulations were also prepared on the day of dosing by mixing the appropriate amount of reference article with the appropriate volume of vehicle to achieve the desired final concentration. The saline and metoclopramide (1 mg/mL) were used as supplied. Dosing was performed on consecutive days with approximately equal numbers of animals being dosed on each day. The animals were deprived of food overnight prior to treatment. Each formulation was administered by intravenous injection into the tail vein using a syringe and appropriate gauge needle. The dose volume was 5 mL/kg or 10 mL/kg (in the case of metoclopramide only). […] Following the observation period the rats were euthanized, the abdominal cavity opened, and the stomach and intestines removed. The presence or absence of charcoal was documented. The stomachs were weighed (with or without contents) to give an indication of gastric emptying. The intestines were opened and extended to their full length. The charcoal was located and the distances from the pyloric sphincter to the most proximal and distal traces of charcoal were measured as was the total distance from the pyloric sphincter to the cecum. Also, the distance traveled by the charcoal as a percentage of the total length of the small intestine was measured.

The test system of data set [2] is morphine-induced gastric ileus in rats. The experiment in a line: Morphine-induced gastric ileus in rats, phenol red gastric emptying (Example 4). In kind it is in vivo, rat. Here is the method:
Treatment groups were set up as follows.
The dose volume was 0.1 mL/kg for Groups 2 and 3 and 0.4 mL/kg for Groups 4 and 5. The actual dose administered was based on the most recent practical body weight of each animal.
Approximately 30 minutes following administration of control or test article, the rats were euthanized. The stomach was then exposed by laparotomy, quickly ligated at the pylorus and the cardia and removed. The stomach was cut open and its contents extracted with 100 mL of 0.1N NaOH. The phenol red content of this extract was assayed […] at 558 nm in a spectrophotometer. Following collection, samples were stored on wet ice pending transfer for analysis.

For data set [3], the system named is gastrointestinal motility in rats. The experiment in a line: Gastrointestinal motility in rats by charcoal transit, equimolar i.v. dose (Example 9). The settings on record: single intravenous dose of 75 μmoles/kg. In kind it is in vivo, rat. The text has this: The objective of this study was to evaluate the pharmacological effects of a series of ghrelin mimetics on gastrointestinal motility in rats, as measured by charcoal transit, relative to control, following a single intravenous infusion of the experimental agent.
Dosing commenced on consecutive days with approximately equal numbers of animals from each group being dosed on each day. The animals were food deprived overnight prior to treatment. Prior to dosing, the animals were water deprived. The test/reference/positive control articles were administered by intravenous injection into the tail vein using a syringe and appropriate gauge needle. […]
At the end of the observation period, the rats were euthanized and the abdominal cavity was opened and the stomach and intestines were removed. […] The stomachs were weighed (with and without contents) and this was recorded to give an indication of gastric emptying. […] The charcoal was located and the distances from the pyloric sphincter to the most proximal and distal traces of charcoal were measured and recorded, as well as the total distance from the pyloric sphincter to the cecum (all distances were measured in mm). In addition to the stomachs weights (with and without contents) the distance traveled by the charcoal as a percentage of the total length of the small intestine was recorded to give an indication of the gastric emptying. […]

For data set [4] the following is noted: cited from earlier work.
For data set [5] the following is noted: cited from earlier work. This is another data set of the same source.
The next data set can be described thus: Half-life in humans. The format is in vivo.
The test system of data set [6] is rat model of post-operative ileus. The experiment in a line: Gastric emptying (phenol red) after i.v. injection, ipamorelin compared to RC-1139, rat model of post-operative ileus (Example 5). In kind it is in vivo. To be noted: 10 mg/kg i.v.; for lethality: n = 2. On the procedure:
Ipamorelin was evaluated in a rat model of post-operative ileus in comparison to RC-1139, a ghrelin mimetic with known gastrokinetic efficacy. Treatment groups were as follows.
All animals were examined twice daily for mortality and signs of ill health or reaction to treatment (except on the day of arrival and necropsy when the animals were examined once). Individual body weights were measured at randomization and on the day prior to dosing (for dose calculation purposes only).
All treatment procedures were replicated over two consecutive days with approximately equal numbers of animals from each group treated on each day. Food was withdrawn from animals overnight prior to surgery. On the day of surgery animals were anesthetized with isoflurane gas and a bland ophthalmic lubricant was applied to each eye. The animals were prepared for surgery by shaving of the entire abdominal region. The shaved area was cleaned and disinfected appropriately prior to incision. Using a scalpel blade, the abdomen was opened and the cecum localized. The cecum was exteriorized and manipulated for approximately one minute (i.e. gently patted between hands in saline-soaked gauze). Thereafter, the cecum was repositioned and the surgical site closed using absorbable suture material (interrupted sutures) and staples. Animals were then returned to their home cage to permit recovery from the anesthesia.
Animals were dosed immediately following the oral gavage dose of phenol red. The test/control articles and reference article were administered by intravenous injection (given as a slow bolus injection over a period of ca. 100 seconds) into the tail vein using a syringe and appropriate gauge needle. The dose volume was 5 mL/kg and the actual dose administered was based on the most recent body weight of each animal.
Prior to dosing of the phenol red, the animals were water deprived. At approximately 30 minutes post-surgery, animals received 0.4 mL of phenol red by oral gavage, then dosed with the test article, and then, approximately 30 minutes later, were euthanized. […]

Data set [7] in a line: Prior Phase 1 studies, safety and tolerability. The format is in vivo, humans. To be noted: 0.06 mg/kg IV infused over 15 minutes. On the procedure:
Ipamorelin was formulated as a 0.5 mg/mL sterile solution with 2 equivalents of acetic acid in normal saline. The sterile solution was further diluted with normal saline to an appropriate volume for administration prior to use.

The conditions of data set [8]: Johansen et al. 1998; cited from earlier work.
In the next data set the test system is rat model of POI. The experiment in a line: Rat model of POI (running of the bowel), single dose (Example 10, series 1). In kind it is in vivo. The text has this:
Animals: Adult male Sprague-Dawley rats with indwelling catheters implanted in the right jugular vein were obtained from Charles River (Wilmington, Mass.). The initial body weight of the animals was 250-270 g. The catheters were maintained patent during the acclimation and were used for the dosing of ipamorelin or vehicle. An additional group of control rats, not subjected to surgery and drug or vehicle treatment, were purchased with an indwelling catheter implanted into the proximal colon (1-2 cm from the cecum) used for infusion of a dye marker measuring colonic transit. All rats were single-housed under controlled conditions (25° C., 12 h light/dark cycle) with free access to food and water. An acclimation period of at least one week was allowed prior to the experiments. • Induction of post-operative ileus (POI): POI was induced by a surgical procedure described as “running of the bowel” (Kalff et al., 1998). Specifically, rats were anesthetized with isoflurane (2-3%) inhalation, the abdomen was shaved, disinfected and a midline incision was made to expose the viscera. The small intestine and the cecum were exteriorized and inspected for 5 min using cotton applicators soaked in sterile saline. After completing the inspection, the intestine was covered with gauze soaked in saline and the abdomen remained open for additional 10 min. To study colonic transit, 200 μl of a non-absorbable dye marker (trypan blue in saline) was injected into the proximal colon (1 cm distal to the cecum). The incision was then closed with silk sutures. The whole procedure lasted 25-30 min. Surgeries were always performed at 6:00-8:00 AM and the animals received ipamorelin or vehicle treatment during the light phase of the light/dark cycle. • Measurement of colonic transit time: Prior to the experiments, the rats were fasted for 20-22 h with free access to water. […] Colonic transit time was evaluated as the period between the end of surgery and the appearance of dye in the fecal pellet. […] The cumulative fecal output was evaluated by adding the number of pellets throughout a 48-h post-surgical period. Food intake was recorded at 3-h interval or 12-h intervals according to the experimental design and was normalized as g/100 g body weight. The cumulative food intake was calculated for 48 h post-surgery in both series of experiments. Body weight was measured daily at 8:00-9:00 AM before fasting the animals, on the day of experiment before the surgery and at 24 h and 48 h post-surgery. Changes in body weight are expressed as body weight gain compared to the weight of the fasted animal taken before the surgery. • Test and control articles: The test compound ipamorelin (free base) was converted to the diacetate salt by mixing with 2 molar equivalents of glacial acetic acid. […]

[9] abbreviates: 50 μg/kg i.v. after 1 mg/kg morphine.
Setting [10] is: single dose i.v., first 48 h post-surgery.

The values that follow come from US8039456B2, “Method of stimulating the motility of the gastrointestinal system using ipamorelin” (Helsinn Therapeutics (U.S.), Inc., priority 2004, dated 2011).

Read-outs that look alike come from different tables or passages of the source. Square brackets hold non-standard residues; d marks the D form. Ends that are not written are not given here. Peptide text beside a SMILES is read from it. d2Nal = N[C@H](Cc1ccc2ccccc2c1)C(=O)O; Aib = CC(C)(N)C(=O)O

As usually defined, the half-life is the time needed for the level to fall by half in the phase considered.

As for `CCN(CC)CCNC(=O)c1cc(Cl)c(N)cc1OC` [metoclopramide], in data set [1] (10 mg/kg i.v.), the “increase of distal distance traveled by the charcoal meal versus control” value is listed as 29% and the “stomach charcoal content versus control group” value is “not significantly different”. For the same compound, in data set [1] (10 mg/kg i.v., control group 67.3%), the “distal distance traveled by the charcoal meal” value worked out at 86.9%.

For “ghrelin: 28-amino acid peptide that is produced in the stomach; potent prokinetic peptide known to reverse gastric ileus (GSSFLSPEHQRVQQRKESKKPPAKLQPR; ends and bridges not checked; UniProt Q9UBU3 24-51, looked up)”, in [2] (setting [9]), the “acceleration of stomach emptying compared to animals treated with 1 mg/kg morphine and saline” value is recorded as “approximately 37%”; the “reversal of the ileus induced” value is listed as “approximately 11%”. Further, the “gastric emptying in rats administered 4 mg/kg of morphine” value in [2] (50 μg/kg i.v. after 4 mg/kg morphine) is “did not accelerate gastric emptying”. The “group mean absorbance of phenol red” value in [2] (50 μg/kg i.v. after 4 mg/kg morphine, saline group 2.99) came to 3.01. The “reduction of the amount of charcoal remaining in the stomach relative to the control group” value in data set [1] came to 57%. Also, the “intestinal transit, proximal distance traveled by the charcoal from the pyloric sphincter” value in [3] was “resulted in gastric emptying by one of the two measures”. In addition, the half-life in humans entry in data set [4] is on record as “approximately 10 minutes”. For the same compound, the serum half-life in [5] (biologically active (acylated) form, Akamizu et al. 2004) was 9 to 13 min.

Take `CC(C)(N)C(=O)N[C@@H](Cc1c[nH]cn1)C(=O)N[C@H](Cc1ccc2ccccc2c1)C(=O)N[C@H](Cc1ccccc1)C(=O)N[C@@H](CCCCN)C(N)=O` [ipamorelin, α-Methylalanine-L-histidine-D-β-(2-naphthyl)-alanine-D-phenylalanine-L-lysinamide] (H-[Aib]H[d2Nal][dF]K-NH2): in the data set “Half-life in humans”, the half-life in humans entry is “approximately six”. This compound showed a half-life in the data set “Half-life in humans” (human, serum) of 180 to 390 min. The lethality result in [6] is “Two animals died immediately”; in data set [6] (listed as Ipamorelin), “*Lethality was observed immediately following administration of a 10 mg/kg dose (n = 2) and consequently the dose level was reduced to 0.25 mg/kg for all remaining animals in Group 4”. Also, the “safety and tolerability in prior Phase 1 studies” value in data set [7] was “safe and well-tolerated”. The “half-life in the rat” value in data set [8] was 30 to 60 min.

Turning to `CN1CC[C@]23c4c5ccc(O)c4O[C@H]2[C@@H](O)C=C[C@H]3[C@H]1C5` [morphine], the “reduction of stomach emptying compared to the control animals” value in data set [2] (1 or 4 mg/kg subcutaneous) is recorded as “approximately 42%”.

For the compound GHRP-6, in data set [1], the “reduction of the amount of charcoal remaining in the stomach relative to the control group” value worked out at 64%. Besides, the “intestinal transit, proximal distance traveled by the charcoal from the pyloric sphincter” value in data set [3] was “resulted in gastric emptying by one of the two measures”. In the data set with rat model of POI (setting [10]), the body weight gain entry is reported as “neither ipamorelin nor GHRP-6 had a significant effect”, the fecal pellet output result is on record as “neither ipamorelin nor GHRP-6 had a significant effect” and the food intake entry is “neither ipamorelin nor GHRP-6 had a significant effect”. In the data set on rat model of POI (single post-surgical dose of 20 μg i.v.), the colonic transit time result was “significantly decreased”. Further, the serum half life in [5] (Bowers et al. 1992) was 20 min.

On to `CN(C(=O)/C=C/CC(C)(C)N)[C@H](Cc1ccc(-c2ccccc2)cc1)C(=O)N(C)[C@H](Cc1ccccc1)C(=O)N1CCC(O)CC1` [RC-1139], for which the “stomach content of the phenol red marker lower than that of the control group” value in data set [6] is reported as “approximately 16%”.
